Source: patent US6073962A (priority 1994, dated 2000)

Tested on: mouse
Conditions: in vivo, po

SMILES	Death rate of 30 mg adm.	Death rate of 300 mg adm.	Death rate of 2000 mg adm.	LD50 level
NN.NN.O=[N+]([O-])[O-].O=[N+]([O-])[O-].[Zn+2] [Ex. 1, Zn.2(N2 H4).2(NO3)]	0/10	0/10	10/10	> 300 mg/kg
NNC(=O)NN.NNC(=O)NN.NNC(=O)NN.O=[N+]([O-])[O-].O=[N+]([O-])[O-].[Zn+2] [Ex. 25, Zn.3(CDH).2(NO3)]	0/10	3/10	10/10	> 300
